Calls of active or inactive are those of the source. The rule behind the calls is not given here.
How the values were obtained:
[1] = molecular target: T1, GABA-A receptor; alpha-1/beta-3/gamma-2 (Homo sapiens, UniProt P14867+P18507+P28472); experiment: Displacement of [3H]-Ro15-1788 from human recombinant GABAA alpha1 in combination with beta-3-gamma-2 expressed in L(tk-) cells; type: cell-based
T1 sequence (P14867 whole entry): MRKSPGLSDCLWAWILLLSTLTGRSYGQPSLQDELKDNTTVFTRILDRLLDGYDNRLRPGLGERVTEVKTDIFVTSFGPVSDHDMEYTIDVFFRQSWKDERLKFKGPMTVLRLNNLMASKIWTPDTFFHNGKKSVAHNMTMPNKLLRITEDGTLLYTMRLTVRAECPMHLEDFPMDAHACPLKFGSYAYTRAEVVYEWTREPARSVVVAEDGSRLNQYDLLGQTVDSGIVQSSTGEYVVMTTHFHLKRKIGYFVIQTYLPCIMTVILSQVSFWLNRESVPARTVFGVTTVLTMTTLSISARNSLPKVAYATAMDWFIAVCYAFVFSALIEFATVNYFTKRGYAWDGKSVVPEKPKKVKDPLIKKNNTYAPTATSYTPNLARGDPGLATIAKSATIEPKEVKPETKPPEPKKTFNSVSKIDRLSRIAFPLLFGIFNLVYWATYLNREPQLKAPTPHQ
T1 sequence (P18507 whole entry): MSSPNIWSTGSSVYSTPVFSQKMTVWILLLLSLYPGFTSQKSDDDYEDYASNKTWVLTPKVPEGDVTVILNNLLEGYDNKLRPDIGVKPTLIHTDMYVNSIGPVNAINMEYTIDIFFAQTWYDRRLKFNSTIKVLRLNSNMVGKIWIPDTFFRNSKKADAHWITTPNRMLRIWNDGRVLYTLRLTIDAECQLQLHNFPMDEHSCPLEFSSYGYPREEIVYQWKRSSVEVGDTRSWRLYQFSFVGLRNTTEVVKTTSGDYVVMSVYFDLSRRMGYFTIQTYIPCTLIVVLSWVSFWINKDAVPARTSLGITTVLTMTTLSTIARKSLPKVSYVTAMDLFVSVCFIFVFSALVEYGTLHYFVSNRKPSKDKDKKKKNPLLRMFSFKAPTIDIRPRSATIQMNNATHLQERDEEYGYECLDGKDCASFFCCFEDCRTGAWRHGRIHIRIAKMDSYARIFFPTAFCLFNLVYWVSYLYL
T1 sequence (P28472 whole entry): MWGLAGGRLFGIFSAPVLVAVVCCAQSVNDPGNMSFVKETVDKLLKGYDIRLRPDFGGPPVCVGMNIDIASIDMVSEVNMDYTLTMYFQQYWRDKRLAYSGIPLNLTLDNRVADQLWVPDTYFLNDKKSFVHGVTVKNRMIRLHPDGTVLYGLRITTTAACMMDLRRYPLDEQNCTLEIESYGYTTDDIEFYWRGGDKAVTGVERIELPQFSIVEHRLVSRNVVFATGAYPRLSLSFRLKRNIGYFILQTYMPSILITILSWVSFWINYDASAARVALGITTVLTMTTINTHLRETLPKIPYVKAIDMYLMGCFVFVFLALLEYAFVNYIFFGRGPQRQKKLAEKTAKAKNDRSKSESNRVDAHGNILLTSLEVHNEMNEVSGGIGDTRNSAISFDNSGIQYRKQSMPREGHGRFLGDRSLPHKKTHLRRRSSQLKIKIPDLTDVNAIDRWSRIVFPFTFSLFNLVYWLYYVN

[2] = molecular target: T2, GABA-A receptor; alpha-5/beta-3/gamma-2 (Homo sapiens, UniProt P18507+P28472+P31644); experiment: Displacement of [3H]Ro-151788 from human recombinant GABAA alpha5 in combination with beta3gamma2 expressed in L(tk-) cells; type: cell-based
T2 sequence (P18507 whole entry): T1 sequence (P18507 whole entry)
T2 sequence (P28472 whole entry): T1 sequence (P28472 whole entry)
T2 sequence (P31644 whole entry): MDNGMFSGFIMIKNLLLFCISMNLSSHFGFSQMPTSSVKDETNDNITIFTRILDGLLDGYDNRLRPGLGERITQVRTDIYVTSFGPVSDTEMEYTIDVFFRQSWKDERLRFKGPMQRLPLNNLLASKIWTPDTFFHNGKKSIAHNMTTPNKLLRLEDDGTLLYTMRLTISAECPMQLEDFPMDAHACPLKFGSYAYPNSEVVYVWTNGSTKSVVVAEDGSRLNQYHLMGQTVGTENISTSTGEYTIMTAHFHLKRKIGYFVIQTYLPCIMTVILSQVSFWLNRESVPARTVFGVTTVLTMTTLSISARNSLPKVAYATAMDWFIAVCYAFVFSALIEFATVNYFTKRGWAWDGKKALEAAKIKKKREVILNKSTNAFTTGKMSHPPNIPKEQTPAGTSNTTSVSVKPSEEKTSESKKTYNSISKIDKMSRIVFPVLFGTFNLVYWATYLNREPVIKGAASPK

[3] = molecular target: T3, GABA-A receptor; alpha-3/beta-3/gamma-2 (Homo sapiens, UniProt P18507+P28472+P34903); experiment: Displacement of [3H]Ro-151788 from human recombinant GABAA alpha3 in combination with beta3gamma2 expressed in L(tk-) cells; type: cell-based
T3 sequence (P18507 whole entry): T1 sequence (P18507 whole entry)
T3 sequence (P28472 whole entry): T1 sequence (P28472 whole entry)
T3 sequence (P34903 whole entry): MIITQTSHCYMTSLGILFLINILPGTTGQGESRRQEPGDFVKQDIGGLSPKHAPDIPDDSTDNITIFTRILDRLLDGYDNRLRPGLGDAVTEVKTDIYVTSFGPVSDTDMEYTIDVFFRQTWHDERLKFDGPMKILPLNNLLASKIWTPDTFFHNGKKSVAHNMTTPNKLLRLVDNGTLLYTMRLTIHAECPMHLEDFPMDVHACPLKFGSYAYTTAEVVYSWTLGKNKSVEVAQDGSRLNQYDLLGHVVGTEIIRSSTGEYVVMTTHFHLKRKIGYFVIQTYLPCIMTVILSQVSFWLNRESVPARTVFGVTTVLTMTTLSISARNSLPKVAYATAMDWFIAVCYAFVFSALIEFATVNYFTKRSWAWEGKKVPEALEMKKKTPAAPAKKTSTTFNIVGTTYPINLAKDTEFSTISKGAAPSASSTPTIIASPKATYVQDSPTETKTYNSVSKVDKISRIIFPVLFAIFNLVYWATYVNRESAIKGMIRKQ

[4] = molecular target: T4, GABA-A receptor; alpha-1/beta-3/gamma-2 (Homo sapiens) (UniProt P14867+P18507+P28472); experiment: Efficacy against human recombinant GABAA alpha-1 in combination with beta3gamma2 expressed in L(tk-) cells by whole cell patch clamp method; type: functional, cell-based
Rattus norvegicus = experiment: Activity in rat elevated plus maze assay at 5 mg/kg, ip; type: functional, organism-based; design: dose 5 mg/kg
[5] = molecular target: T5, GABA-A receptor; alpha-3/beta-3/gamma-2 (Homo sapiens) (UniProt P18507+P28472+P34903); experiment: Efficacy against human recombinant GABAA alpha3 in combination with beta-3-gamma-2 expressed in L(tk-) cells by 36Cl ion flux modulation; type: functional, cell-based
[6] = molecular target: T4, GABA-A receptor; alpha-1/beta-3/gamma-2 (Homo sapiens); experiment: Efficacy against human recombinant GABAA alpha1 in combination with beta3gamma2 expressed in L(tk-) cells by 36Cl ion flux modulation; type: functional, cell-based
[7] = molecular target: T6, GABA-A receptor; alpha-2/beta-3/gamma-2 (Homo sapiens, UniProt P18507+P28472+P47869); experiment: Displacement of [3H]-Ro15-1788 from human recombinant GABAA alpha2 in combination with beta3gamma2 expressed in L(tk-) cells; type: cell-based
T6 sequence (P18507 whole entry): T1 sequence (P18507 whole entry)
T6 sequence (P28472 whole entry): T1 sequence (P28472 whole entry)
T6 sequence (P47869 whole entry): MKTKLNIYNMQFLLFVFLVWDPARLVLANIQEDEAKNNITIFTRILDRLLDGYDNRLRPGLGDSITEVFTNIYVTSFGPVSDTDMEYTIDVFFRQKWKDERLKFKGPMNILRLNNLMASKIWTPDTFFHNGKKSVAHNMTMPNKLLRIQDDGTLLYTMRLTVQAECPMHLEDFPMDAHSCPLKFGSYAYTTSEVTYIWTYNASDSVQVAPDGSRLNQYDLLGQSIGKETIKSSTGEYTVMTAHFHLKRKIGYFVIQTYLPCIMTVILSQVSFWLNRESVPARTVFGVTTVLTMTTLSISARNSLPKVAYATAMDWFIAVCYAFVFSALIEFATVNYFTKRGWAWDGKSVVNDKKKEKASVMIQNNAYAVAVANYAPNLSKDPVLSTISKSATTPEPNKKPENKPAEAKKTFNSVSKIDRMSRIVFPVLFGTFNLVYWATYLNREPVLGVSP

[8] = molecular target: T5, GABA-A receptor; alpha-3/beta-3/gamma-2 (Homo sapiens); experiment: Efficacy against human recombinant GABAA alpha3 in combination with beta-3-gamma-2 expressed in L(tk-) cells by whole cell patch clamp method; type: functional, cell-based
[9] = molecular target: GABA-A receptor; alpha-5/beta-3/gamma-2 (Homo sapiens) (UniProt P18507+P28472+P31644); experiment: Efficacy against human recombinant GABAA alpha5 in combination with beta3gamma2 expressed in L(tk-) cells by whole cell patch clamp method; type: functional, cell-based
[10] = Oral bioavailability in rat; type: ADME, organism-based; conditions: in vivo
[11] = Plasma clearance in rat; type: ADME, organism-based
[12] = Plasma clearance in dog; type: ADME, organism-based, Canis lupus familiaris
[13] = Oral bioavailability in dog; type: ADME, organism-based, Canis lupus familiaris; conditions: in vivo

Compound | Ki [1] [nM] | Ki [2] [nM] | Ki [3] [nM] | Efficacy [4] [%] | Activity (Rattus norvegicus) | Efficacy [5] [%] | Efficacy [6] [%] | Ki [7] [nM] | Efficacy [8] [%] | Efficacy [9] [%] | bioavailability [10] [%] | clearance [11] [mL/min/kg] | clearance [12] [mL/min/kg] | bioavailability [13] [%]
N#Cc1ccc(F)cc1-c1cc(-c2cnc3nc(C(F)(F)F)ccn23)ccc1F | 0.65 | 0.26 | 0.62 | 34 | – | – | – | – | – | – | – | – | – | –
CNC1=Nc2ccc(Cl)cc2C(c2ccccc2)=[N+]([O-])C1 | – | – | – | – | Active | – | – | – | – | – | – | – | – | –
N#Cc1ccccc1-c1cc(F)cc(-c2cnc3nc(C(F)(F)F)ccn23)c1 | 5.3 | 1.6 | 14 | – | – | 18 | 4 | – | – | – | – | – | – | –
c1ccc(-c2nnc3c4c(c(OCc5ccccn5)nn23)C2CCC4CC2)cc1 | 56 | 1 | 10 | 32 | – | – | – | 21.7 | 45.6 | – | – | – | – | –
N#Cc1ccccc1-c1cccc(-c2cnc3nc(C(F)(F)F)ccn23)c1F | 2.7 | 0.94 | 2.6 | 2 | – | – | – | – | 43 | 18 | – | – | – | –
N#Cc1c(F)cccc1-c1cc(-c2cnc3nc(C(F)(F)F)ccn23)ccc1F | 4.6 | 2.8 | 7.6 | – | – | 56 | 31 | – | – | – | – | – | – | –
CCn1ncnc1COc1nn2c(-c3ccccc3F)nnc2cc1C(C)(C)C [MK-0777] | 0.26 | 0.2 | 0.3 | – | – | – | – | 0.3 | – | – | – | – | – | –
Cn1ncnc1COc1nn2c(-c3cc(F)ccc3F)nnc2cc1C(C)(C)C | 0.8 | 2.3 | 0.7 | 2 | – | – | – | 0.7 | 43 | 39 | – | – | – | –
N#Cc1ccccc1-c1cccc(-c2cnc3nc(C(F)(F)F)ccn23)c1 | 0.66 | 0.21 | 0.33 | 20 | – | – | – | – | 69 | – | – | – | – | –
Cc1ccn2c(-c3cccc(-c4ccccc4C#N)c3)cnc2c1 | 4.5 | 1.2 | 3.6 | -10 | – | – | – | – | 57 | -14.6 | 2 | 44 | – | –
CCO/N=C(\C)c1ccc2c(c1)ncn2-c1cccc(-c2cccnc2)c1 | 1.5 | 1.6 | 9.2 | 42 | – | – | – | 13.1 | 127 | 26 | – | – | – | –
N#Cc1ccccc1-c1cc(-c2cnc3nc(C(F)(F)F)ccn23)ccc1F | 0.5 | 0.2 | 0.34 | 12.4 | – | – | – | 0.52 | 43 | 14 | – | – | – | –
N#Cc1cccc(F)c1-c1cc(-c2cnc3nc(C(F)(F)F)ccn23)ccc1F | 0.87 | 0.5 | 0.38 | 8 | – | – | – | – | 33 | – | – | – | – | –
Cn1cnc(COc2nn3c(-c4ccccc4)nnc3c3c2C2CCC3CC2)n1 | – | – | – | 34 | – | – | – | – | 55 | – | – | – | – | –
Cc1ccn2c(-c3cccc(-c4cccnc4)c3)cnc2c1 | – | – | 16 | – | – | 9 | -15 | – | – | – | – | – | – | –
Cc1ccn2c(-c3cccc(-c4ccccc4C#N)c3)cnc2n1 | 0.39 | 0.12 | 0.37 | 7 | – | – | – | 0.78 | 81 | 1 | 42 | 13 | 41 | < 5
CC(C)(O)c1ccn2c(-c3ccc(F)c(-c4ccc(F)cc4C#N)c3)cnc2n1 | 2.7 | 0.1 | 1.3 | – | – | 45 | 45 | 3.3 | – | – | – | – | – | –

— ChEMBL document CHEMBL1148587, “Imidazo[1,2-a]pyrimidines as functionally selective and orally bioavailable GABA(A)alpha2/alpha3 binding site agonists for the treatment of anxiety disorders” (J Med Chem, 2006)
